The results in this text go back to patent US20250122181A1, “BENZIMIDAZOLES AS MODULATORS OF IL-17” (Janssen Pharmaceutica NV, priority 2021, published 2025).

SMILES strings stand for the structures. pIC50: −log10 of the molar value.

The target in assay [1] is IL-17A(FLAG-Tagged): IL-17RA(His-Tagged) (Homo sapiens, UniProt Q16552, K93Q). Nature of the assay: IL-17A(FLAG-Tagged): IL-17RA(His-Tagged) Binding Disruption Eu-HTRF Assay, Protocol 1. The note with it: Protocol 1, FLAG tagged IL-17A 2.5 nM; simple average if tested more than once. In a few lines: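 IC50 came from a one-site competition fit of the acceptor/donor (665/620 nm) HTRF ratio. His-tagged IL-17RA, Eu-anti-FLAG and D2-anti-His were added after a 1 h rt compound preincubation with FLAG-tagged IL-17A dimer in PBS/0.01% Triton X-100, followed by 2 h at rt before reading.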
On the technique in general: In TR-FRET formats the signal depends on donor and acceptor labels being close together.

Assay [2] has as its system IL-17A-induced G-CSF production in human normal keratinocyte (NHK). The assay can be described thus: NHK Assay: IL-17A-induced G-CSF production in human normal keratinocyte. The assay is classed as cell-based. The note with it: 24 h, IL-17A 5 ng/mL, simple average if tested more than once. An outline of the steps: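 Stimulus rhIL-17A 5 ng/mL final, premixed 1 h rt with compound; adult NHK, 5% FBS, 0.2% DMSO. Viability by CellTiter-Glo vs DMSO.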

UniProt Q16552, sequence (Q16552 with tags, fused parts or gaps K93Q): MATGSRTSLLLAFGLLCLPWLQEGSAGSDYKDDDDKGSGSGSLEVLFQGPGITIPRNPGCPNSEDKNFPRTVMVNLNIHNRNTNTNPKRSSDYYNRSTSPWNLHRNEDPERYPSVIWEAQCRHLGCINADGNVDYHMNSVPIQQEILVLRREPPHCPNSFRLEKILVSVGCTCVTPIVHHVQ

As usually defined, the pIC50 is the IC50 on a negative log10 scale, so that one unit is a factor of ten. For the molecule `Cc1nonc1C(=O)N[C@@H](COC(C)(C)C(F)(F)F)c1nc2ccc(CN3CC(F)(F)CNC3=O)cc2[nH]1` [Example 28, (R)—N-(1-(6-((5,5-Difluoro-2-oxotetrahydropyrimidin-1(2H)-yl)methyl)-1H-benzo[d]imidazol-2-yl)-2-((1,1,1-trifluoro-2-methylpropan-2-yl)oxy)ethyl)-4-methyl-1,2,5-oxadiazole-3-carboxamide], the pIC50 in assay [1] is more than 7.30; in assay [2] (Homo sapiens, Keratinocyte), more than 7.30.
Consider `[2H]C1([2H])[C@@H](C(F)(F)F)NC(=O)N1[C@@H](c1ccc2[nH]c([C@@H](NC(=O)c3nonc3C)[C@@H](C)O[C@@H](C)C(F)(F)F)nc2c1)C1CC1` (single isomer, unassigned) [Example 11], for which the pIC50 was less than 7.00 in assay [1] and less than 7.00 in assay [2] (Homo sapiens, Keratinocyte).
As to `Cc1nonc1C(=O)N[C@@H](COC(C)(C)C(F)(F)F)c1nc2cc([C@@H](C3CC3)N3C[C@@H](C4CC4)NC3=O)ccc2[nH]1` [Example 84, N—((R)-1-(5-((R)-Cyclopropyl((R)-4-cyclopropyl-2-oxoimidazolidin-1-yl)methyl)-1H-benzo[d]imidazol-2-yl)-2-((1,1,1-trifluoro-2-methylpropan-2-yl)oxy)ethyl)-4-methyl-1,2,5-oxadiazole-3-carboxamide], the pIC50 is more than 7.30 in assay [1] and more than 7.30 in assay [2] (Homo sapiens, Keratinocyte).
`Cc1nonc1C(=O)N[C@@H](COC(C)(C)C(F)(F)F)c1nc2cc(CN3C[C@@](C)(C(F)(F)F)NC3=O)ccc2[nH]1` (relative stereo) [Example 58, 4-Methyl-N—((R*)-1-(5-(((S*)-4-methyl-2-oxo-4-(trifluoromethyl)imidazolidin-1-yl)methyl)-1H-benzo[d]imidazol-2-yl)-2-((1,1,1-trifluoro-2-methylpropan-2-yl)oxy)ethyl)-1,2,5-oxadiazole-3-carboxamide]: the pIC50 was more than 7.30 in assay [1] and more than 7.30 in assay [2] (Homo sapiens, Keratinocyte).
As for `Cc1nonc1C(=O)NC(COC(C)(C)C(F)(F)F)c1nc2cc([C@@H](COC3CC3)N3C[C@@H](C(F)(F)F)NC3=O)ccc2[nH]1` (single isomer, unassigned) [Example 41, N—((R*)-1-(5-((S)-2-cyclopropoxy-1-((S)-2-oxo-4-(trifluoromethyl)imidazolidin-1-yl)ethyl)-1H-benzo[d]imidazol-2-yl)-2-((1,1,1-trifluoro-2-methylpropan-2-yl)oxy)ethyl)-4-methyl-1,2,5-oxadiazole-3-carboxamide], the pIC50 in assay [1] is more than 7.30; in assay [2] (Homo sapiens, Keratinocyte) it was more than 7.30.
Regarding `Cc1nonc1C(=O)N[C@@H](COC(C)(C)C(F)(F)F)c1nc2cc([C@@H](C)N3CC(F)(F)CNC3=O)ccc2[nH]1` (relative stereo) [Example 26, N—((R)-1-(5-((R*)-1-(5,5-Difluoro-2-oxotetrahydropyrimidin-1(2H)-yl)ethyl)-1H-benzo[d]imidazol-2-yl)-2-((1,1,1-trifluoro-2-methylpropan-2-yl)oxy)ethyl)-4-methyl-1,2,5-oxadiazole-3-carboxamide], the pIC50 in assay [1] was more than 7.30; in assay [2] (Homo sapiens, Keratinocyte), more than 7.30.
Consider `CC(C)(OC[C@H](NC(=O)c1nonc1C1CC1)c1nc2cc([C@@H](C3CC3)N3CC(F)(F)CNC3=O)ccc2[nH]1)C(F)(F)F` [Example 22, 4-Cyclopropyl-N—((R)-1-(5-((R)-cyclopropyl(5,5-difluoro-2-oxotetrahydropyrimidin-1(2H)-yl)methyl)-1H-benzo[d]imidazol-2-yl)-2-((1,1,1-trifluoro-2-methylpropan-2-yl)oxy)ethyl)-1,2,5-oxadiazole-3-carboxamide], for which the pIC50 in assay [1] is more than 7.30; in assay [2] (Homo sapiens, Keratinocyte) it was more than 7.30.
Consider `Cc1nonc1C(=O)NC(c1nc2cc([C@@H](C3CC3)N3C[C@@H](C(F)(F)F)NC3=O)ccc2[nH]1)[C@@H](C)O[C@H](C)C(F)(F)F` (single isomer, unassigned) [Example 10, N-((1R*,2R)-1-(5-((R)-Cyclopropyl((S)-2-oxo-4-(trifluoromethyl)imidazolidin-1-yl)methyl)-1H-benzo[d]imidazol-2-yl)-2-(((R)-1,1,1-trifluoropropan-2-yl)oxy)propyl)-4-methyl-1,2,5-oxadiazole-3-carboxamide], for which the pIC50 was more than 7.30 in assay [1] and more than 7.30 in assay [2] (Homo sapiens, Keratinocyte).
As for `COCC(c1ccc2[nH]c([C@H](COC(C)(C)C(F)(F)F)NC(=O)c3nonc3C)nc2c1)N1CC(C)(C)NC1=O` (single isomer, unassigned) [Example 49, N—((R)-1-(5-((S*)-1-(4,4-Dimethyl-2-oxoimidazolidin-1-yl)-2-methoxyethyl)-1H-benzo[d]imidazol-2-yl)-2-((1,1,1-trifluoro-2-methylpropan-2-yl)oxy)ethyl)-4-methyl-1,2,5-oxadiazole-3-carboxamide], the pIC50 in assay [1] and in assay [2] was less than 7.00 each time.
With `[2H]C1([2H])[C@H](C(F)(F)F)NC(=O)N1[C@@H](c1ccc2[nH]c([C@@H](NC(=O)c3nonc3C)[C@@H](C)O[C@H](C)C(F)(F)F)nc2c1)C1CC1` (relative stereo) [Example 8, N-((1R*,2R)-1-(5-((R)-Cyclopropyl((R*)-2-oxo-4-(trifluoromethyl)imidazolidin-1-yl-5,5-d2)methyl)-1H-benzo[d]imidazol-2-yl)-2-(((R)-1,1,1-trifluoropropan-2-yl)oxy)propyl)-4-methyl-1,2,5-oxadiazole-3-carboxamide], the pIC50 in assay [1] was 7.00 to 7.30; in assay [2] (Homo sapiens, Keratinocyte) it was less than 7.00.
For `Cc1nonc1C(=O)N[C@@H](COC(C)(C)C(F)(F)F)c1nc2cc([C@@H](C3CC3)N3C[C@@H](C(F)(F)F)NC3=O)ccc2[nH]1` [Example 2, N—((R)-1-(5-((R)-Cyclopropyl((S)-2-oxo-4-(trifluoromethyl)imidazolidin-1-yl)methyl)-1H-benzo[d]imidazol-2-yl)-2-((1,1,1-trifluoro-2-methylpropan-2-yl)oxy)ethyl)-4-methyl-1,2,5-oxadiazole-3-carboxamide], in that order: more than 7.30 and more than 7.30.
For `CC(C)(OC[C@H](NC(=O)c1nonc1C1CC1)c1nc2cc([C@@H](C3CC3)N3C[C@@H](C(F)(F)F)NC3=O)ccc2[nH]1)C(F)(F)F` [Example 1, 4-Cyclopropyl-N—((R)-1-(5-((R)-cyclopropyl((S)-2-oxo-4-(trifluoromethyl)imidazolidin-1-yl)methyl)-1H-benzo[d]imidazol-2-yl)-2-((1,1,1-trifluoro-2-methylpropan-2-yl)oxy)ethyl)-1,2,5-oxadiazole-3-carboxamide], in that order: more than 7.30 and more than 7.30.
For `Cc1nonc1C(=O)N[C@@H](COC(C)(C)C(F)(F)F)c1nc2cc([C@@H](C3CC3)N3CC(F)(F)CNC3=O)ccc2[nH]1` [Example 23, N—((R)-1-(5-((R)-Cyclopropyl(5,5-difluoro-2-oxotetrahydropyrimidin-1(2H)-yl)methyl)-1H-benzo[d]imidazol-2-yl)-2-((1,1,1-trifluoro-2-methylpropan-2-yl)oxy)ethyl)-4-methyl-1,2,5-oxadiazole-3-carboxamide], in that order: more than 7.30 and more than 7.30.
For the molecule `[2H]C([2H])([2H])C([2H])([2H])n1nccc1C(=O)N[C@@H](COC(C)(C)C(F)(F)F)c1nc2cc([C@@H](C3CC3)N3C[C@@H](C(F)(F)F)NC3=O)ccc2[nH]1` [Example 4, N—((R)-1-(5-((R)-Cyclopropyl((S)-2-oxo-4-(trifluoromethyl)imidazolidin-1-yl)methyl)-1H-benzo[d]imidazol-2-yl)-2-((1,1,1-trifluoro-2-methylpropan-2-yl)oxy)ethyl)-1-(ethyl-d5)-1H-pyrazole-5-carboxamide], the pIC50 in assay [1] was more than 7.30; in assay [2] (Homo sapiens, Keratinocyte), more than 7.30.
With `CC(C)n1nccc1C(=O)N[C@H](c1nc2c(F)cc([C@@H](C3CC3)N3C[C@@H](C(F)(F)F)NC3=O)cc2[nH]1)[C@@H](C)O[C@H](C)C(F)(F)F` [Example 85, N-[(1R,2R)-1-[6-[(R)-Cyclopropyl-[(4S)-2-oxo-4-(trifluoromethyl)imidazolidin-1-yl]methyl]-4-fluoro-1H-benzimidazol-2-yl]-2-[(1R)-2,2,2-trifluoro-1-methyl-ethoxy]propyl]-2-isopropyl-pyrazole-3-carboxamide], the pIC50 was 7.00 to 7.30 in assay [1] and more than 7.30 in assay [2] (Homo sapiens, Keratinocyte).
For `COC[C@H](c1ccc2[nH]c(C(NC(=O)c3nonc3C)[C@@H](C)O[C@H](C)C(F)(F)F)nc2n1)N1CC(F)(F)CNC1=O` (single isomer, unassigned) [Example 21, N-((1R*,2R)-1-(5-((S)-1-(5,5-Difluoro-2-oxotetrahydropyrimidin-1(2H)-yl)-2-methoxyethyl)-1H-imidazo[4,5-b]pyridin-2-yl)-2-(((R)-1,1,1-trifluoropropan-2-yl)oxy)propyl)-4-methyl-1,2,5-oxadiazole-3-carboxamide], in that order: more than 7.30 and more than 7.30.
As to `CC(C)n1nccc1C(=O)N[C@@H](COC(C)(C)C(F)(F)F)c1nc2cc([C@@H](C)N3CC(F)(F)CNC3=O)ccc2[nH]1` (relative stereo) [Example 27, N—((R)-1-(5-((R*)-1-(5,5-Difluoro-2-oxotetrahydropyrimidin-1(2H)-yl)ethyl)-1H-benzo[d]imidazol-2-yl)-2-((1,1,1-trifluoro-2-methylpropan-2-yl)oxy)ethyl)-1-isopropyl-1H-pyrazole-5-carboxamide], the pIC50 in assay [1] was more than 7.30; in assay [2] (Homo sapiens, Keratinocyte), more than 7.30.
